Measurements from patent publication US20130136809A1, “7-HYRDROXYFRULLANOLIDE ITS ANALOGS FOR PREVENTION CONTROL AND TREATMENT OF METABOLIC DISORDERS” (LAILA NUTRACEUTICALS, priority 2009, published 2013).

Legend:
Assay type in all cases: cell-based, mouse
PTP-1B = PTP-1B activity in 3T3-L1 cell lysates (pNPP hydrolysis); settings: 1.0 or 2.5 μg/ml; 48 h
Experimental: Equal number of 3T3-L1 mouse preadipocytes was seeded into cell culture dishes. After 24 h, the cells were treated either with different concentrations of 7-HF or […] Sodium vanadate ([…]) for further 48 h. Thereafter, the washed cells were lysed with cell lysis buffer and the clarified at 14,000 g for 10 min at 4° C. The protein concentrations were calculated by Bradford method and the cell lysates were reacted with equal volume of substrate reagent containing 10 mM p-nitrophenyl phosphate (pNPP). After 1 h incubation at 37° C., the reaction was stopped with 1N NaOH and the developed color was read at 405 nm. The specific enzyme activity was calculated by using an extinction coefficient of 1.78×10^4 M^−1cm^−1 for pNPP at A405. The inhibition shown by 7-HF is depicted in Figure VII.

PPARγ = assay: Immunoblot of PPARγ expression in 3T3-L1 adipocytes; settings: 1 ug/ml; normalized with actin
Experimental: Experimental protocol: Mouse pre-adipocyte 3T3-L1 cells are maintained in Dulbecco's Modified Eagles Medium (DMEM) supplemented with 2 mM glutamine, 4.5 g/L glucose and 10% fetal bovine serum. Equal number of cells was plated in each well of 24-well culture plates. Cells were pre-treated separately with 1 μg/mL 7-hydroxyfrullanolide for 2 h and followed by addition of differentiation medium containing 500 nM insulin, 1.0 μM dexamethasone, and 0.5 mM isobutylmethylxanthine (IBMX) for 48 h. Thereafter, cells were further incubated with post differentiation medium (DMEM containing 100 nM insulin) in presence or absence of 7-HF. […] Protein content was measured in Bradford method by using Coomassie blue dye and cell lysates were stored in aliquots at −80° C. until further use. The modulation of adipocyte differentiation markers such as Peroxisome proliferator-activated receptor gamma (PPARγ), CD36, adipocyte fatty acid binding protein (aP2); and intracellular lipid droplet surface associated protein, perilipin expression were evaluated by immunoblot assay.
Inhibition of protein expression of biomarker molecules adipocytes in presence or absence of 7-hydroxyfrullanolide (7-HF) was evaluated in immunoblot assay. […] Band intensities were calculated densitometrically and normalized with expression of actin in respective samples.

[1] = tested on: 3T3-L1 pre-adipocyte cells; assay: Inhibition of lipid accumulation in differentiated adipocytes (Oil Red O); settings: Homo sapiens, 3T3-L1 adipocytes
Experimental: One hundred thousand 3T3-L1 […] pre-adipocyte cells in Dulbecco's Modified Eagles Medium (DMEM) containing 10% Fetal Bovine Serum (FBS) were taken into each well of a 24-well plate and incubated for 48 h at 37° C. and 5% CO2. The differentiation of pre-adipocyte cells was initiated in a differentiation medium containing 10 μg/ml insulin, 1.0 μM dexamethasone, and 0.5 mM isobutylmethylxanthine (IBMX) for 48 h. After this the medium was replaced by DMEM containing 10 ug/ml insulin and incubated for 3 days. Then the differentiating cells were treated with […] of 7-hydroxyfrullanolide (1) or different natural analogs (structure numbers 3 to 11) or semi-synthetic analogs (structure numbers 12 to 25) of 7-HF. The cells were maintained in the medium for another 3-5 days. The cells incubated with 0.1% DMSO were considered as the vehicle control. After the incubation period, cells were washed with phosphate buffered saline (PBS) and fixed with 10% buffered formalin for 1 h at room temperature. One small aliquot of cell suspension was separated for cell counting in hemocytometer chamber. Fixed cells were stained with Oil Red O solution to measure the cellular neutral lipid accumulation. Briefly, cells were washed with PBS, fixed with 10% buffered formalin and stained with Oil Red O solution (0.5 g in 100 ml isopropanol) for […]. After removing the staining solution, the dye retained in the cells will be eluted into isopropanol and OD measured at 550 nm. The inhibition of fat accumulation in the treated cells was compared with the mock treated differentiated adipocytes. The treated and control cells were also analyzed and compared for inhibition of lipid accumulation visually under microscope and recorded digitally in suitable image capture system. The anti-adipogenic activity by 7-HF is depicted in Figure I and the percentage inhibition of lipid accumulation shown by 7-HF and its natural and semi-synthetic analogs is summarized in Table-1.

SMILES: C=C1C(=O)O[C@H]2C3=C(C)CCC[C@]3(C)CC[C@@]12O [7-HF (1), 7-hydroxyfrullanolide]
- PTP-1B activity (PTP-1B): significant inhibition
- PPARγ protein expression (PPARγ): down-regulation
- inhibition at 1 µg/mL ([1]; 1.0 μg/mL): 52.5%
- inhibition at 2.5 µg/mL ([1]; 2.5 μg/mL): 63.5%
